Laboratory results reported in publication PMC10004187 (Molecules, 2023).

Key:
[1] = molecular target: T1, butyrylcholinesterase (BuChE) (Homo sapiens, UniProt P06276); conditions: for Butyrylcholinesterase (BuChE) Inhibition %Inhibition: given for compounds with <50% inhibition, test concentration not given
[2] = tested on: Vero cell lines (normal kidney epithelial cells); experiment: SRB cytotoxicity assay against Vero cell line; type: cell-based; conditions: initial screening
Procedure: To investigate the cytotoxicity of potent compounds (8a, 8c, 8g, and 9i), an SRB assay was performed against Vero cell lines (normal kidney epithelial cells). The total protein generated when cells were treated with putative anticancer drugs was assessed using a very precise […] technique. […] It can readily connect with cells that have been fixed with trichloroacetic acid (TCA). A bright color is produced by the SRB dye when it binds solely to intracellular proteins, and the color is proportional to the quantity of protein present in the cell.

[3] = molecular target: T1, butyrylcholinesterase (BuChE); experiment: biochemical

T1 sequence (P06276 29-602): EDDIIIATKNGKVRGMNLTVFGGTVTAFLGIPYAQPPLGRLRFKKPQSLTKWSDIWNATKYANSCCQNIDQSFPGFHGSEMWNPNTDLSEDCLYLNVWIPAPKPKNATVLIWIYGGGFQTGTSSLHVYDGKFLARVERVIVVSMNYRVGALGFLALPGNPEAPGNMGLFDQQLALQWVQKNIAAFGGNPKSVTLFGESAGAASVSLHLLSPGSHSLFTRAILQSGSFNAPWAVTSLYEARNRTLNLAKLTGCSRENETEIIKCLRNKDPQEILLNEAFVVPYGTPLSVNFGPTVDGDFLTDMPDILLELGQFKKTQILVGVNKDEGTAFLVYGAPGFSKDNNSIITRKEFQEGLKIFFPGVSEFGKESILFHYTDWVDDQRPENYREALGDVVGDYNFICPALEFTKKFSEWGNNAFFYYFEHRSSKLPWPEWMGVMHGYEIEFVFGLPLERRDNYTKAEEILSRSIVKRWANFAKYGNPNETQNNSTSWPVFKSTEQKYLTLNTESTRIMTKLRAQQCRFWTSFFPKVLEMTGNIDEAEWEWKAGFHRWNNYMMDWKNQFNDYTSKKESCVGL

SMILES | Butyrylcholinesterase (BuChE) Inhibition %Inhibition [1] | further results
Cc1cccc2cc(C=NNC(=O)c3cccc(Cl)c3)c(N3CCCCC3)nc12 [Compound 9e, 3-Chloro-N′-((8-methyl-2-(piperidin-1-yl)quinolin-3-yl)methylene)benzohydrazide] | 40% | –
Cc1cccc2cc(C=NNC(=O)c3ccc(Cl)cc3)c(N3CCCCC3)nc12 [Compound 9f, 4-Chloro-N′-((8-methyl-2-(piperidin-1-yl)quinolin-3-yl)methylene)benzohydrazide] | 36% | –
Cc1cccc2cc(C=NNC(=O)c3ccc([N+](=O)[O-])cc3)c(N3CCCCC3)nc12 [Compound 9c, N′-((8-methyl-2-(piperidin-1-yl)quinolin-3-yl)methylene)-4-nitrobenzohydrazide] | 32% | –
Cc1ccc2nc(N3CCCCC3)c(C=NNC(=O)c3ccc(N)cc3)cc2c1 [Compound 8e, 4-Amino-N′-((6-methyl-2-(piperidin-1-yl)quinolin-3-yl)methylene)benzohydrazide] | 23% | –
COc1ccccc1C(=O)NN=Cc1cc2cc(C)ccc2nc1N1CCCCC1 [Compound 8j, 2-Methoxy-N′-((6-methyl-2-(piperidin-1-yl)quinolin-3-yl)methylene)benzohydrazide] | 30% | –
COc1cccc(C(=O)NN=Cc2cc3cc(C)ccc3nc2N2CCCCC2)c1 [Compound 8k, 3-Methoxy-N′-((6-methyl-2-(piperidin-1-yl)quinolin-3-yl)methylene)benzohydrazide] | 28% | –
Cc1ccc2nc(N3CCCCC3)c(C=NNC(=O)c3ccc([N+](=O)[O-])cc3)cc2c1 [Compound 8c, N′-((6-methyl-2-(piperidin-1-yl)quinolin-3-yl)methylene)-4-nitrobenzohydrazide] | – | inhibition of Vero cells (toxicity towards normal kidney cells) [2]: less than 22%; IC50 [3]: 1.74 ± 0.03 µM
Cc1cccc2cc(C=NNC(=O)c3cccc([N+](=O)[O-])c3)c(N3CCCCC3)nc12 [Compound 9b, N′-((8-methyl-2-(piperidin-1-yl)quinolin-3-yl)methylene)-3-nitrobenzohydrazide] | 27% | –
COc1ccccc1C(=O)NN=Cc1cc2cccc(C)c2nc1N1CCCCC1 [Compound 9h, 2-Methoxy-N′-((8-methyl-2-(piperidin-1-yl)quinolin-3-yl)methylene)benzohydrazide] | 33% | –
Cc1ccc2nc(N3CCCCC3)c(C=NNC(=O)c3ccc(Cl)cc3Cl)cc2c1 [Compound 8i, 2,4-Dichloro-N′-((6-methyl-2-(piperidin-1-yl)quinolin-3-yl)methylene)benzohydrazide] | 39% | –
Cc1cccc2cc(C=NNC(=O)c3ccc(Cl)cc3Cl)c(N3CCCCC3)nc12 [Compound 9g, 2,4-Dichloro-N′-((8-methyl-2-(piperidin-1-yl)quinolin-3-yl)methylene)benzohydrazide] | 32% | –
COc1cccc(C(=O)NN=Cc2cc3cccc(C)c3nc2N2CCCCC2)c1 [Compound 9i, 3-Methoxy-N′-((8-methyl-2-(piperidin-1-yl)quinolin-3-yl)methylene)benzohydrazide] | 27% | inhibition of Vero cells (toxicity towards normal kidney cells) [2]: less than 22%
COc1ccc(C(=O)NN=Cc2cc3cccc(C)c3nc2N2CCCCC2)cc1 [Compound 9j, 4-Methoxy-N′-((8-methyl-2-(piperidin-1-yl)quinolin-3-yl)methylene)benzohydrazide] | 38% | –
Cc1ccc2nc(N3CCCCC3)c(C=NNC(=O)c3ccccc3Cl)cc2c1 [Compound 8f, 2-Chloro-N′-((6-methyl-2-(piperidin-1-yl)quinolin-3-yl)methylene)benzohydrazide] | 15% | –
Cc1cccc2cc(C=NNC(=O)c3ccccc3Cl)c(N3CCCCC3)nc12 [Compound 9d, 2-Chloro-N′-((8-methyl-2-(piperidin-1-yl)quinolin-3-yl)methylene)benzohydrazide] | 38% | –
Cc1ccc2nc(N3CCCCC3)c(C=NNC(=O)c3ccc(Cl)cc3)cc2c1 [Compound 8h, 4-Chloro-N′-((6-methyl-2-(piperidin-1-yl)quinolin-3-yl)methylene)benzohydrazide] | 34% | –
Cc1ccc2nc(N3CCCCC3)c(C=NNC(=O)c3cccc([N+](=O)[O-])c3)cc2c1 [Compound 8b, N′-((6-methyl-2-(piperidin-1-yl)quinolin-3-yl)methylene)-3-nitrobenzohydrazide] | – | BuChE inhibition ability, fold reduction relative to 8g ([1]; Cl exchanged for NO2, vs lead 8g): 3 folds; IC50 [3]: 4.71 ± 0.45 µM
Cc1ccc2nc(N3CCCCC3)c(C=NNC(=O)c3ccccc3N)cc2c1 [Compound 8d, 2-Amino-N′-((6-methyl-2-(piperidin-1-yl)quinolin-3-yl)methylene)benzohydrazide] | 21% | –
Cc1cccc2cc(C=NNC(=O)c3ccccc3)c(N3CCCCC3)nc12 [Compound 9a, N′-((8-methyl-2-(piperidin-1-yl)quinolin-3-yl)methylene)benzohydrazide] | 32% | –
COc1ccc(C(=O)NN=Cc2cc3cc(C)ccc3nc2N2CCCCC2)cc1 [Compound 8l, 4-Methoxy-N′-((6-methyl-2-(piperidin-1-yl)quinolin-3-yl)methylene)benzohydrazide] | 15% | –
Cc1ccc2nc(N3CCCCC3)c(C=NNC(=O)c3ccccc3)cc2c1 [Compound 8a, N′-((6-methyl-2-(piperidin-1-yl)quinolin-3-yl)methylene)benzohydrazide] | – | inhibition of Vero cells (toxicity towards normal kidney cells) [2]: less than 22%; IC50 [3]: 4.64 ± 0.43 µM
Cc1ccc2nc(N3CCCCC3)c(C=NNC(=O)c3cccc(Cl)c3)cc2c1 [Compound 8g, 3-Chloro-N′-((6-methyl-2-(piperidin-1-yl)quinolin-3-yl)methylene)benzohydrazide] | – | inhibition of Vero cells (toxicity towards normal kidney cells) [2]: less than 22%; IC50 [3]: 1.31 ± 0.05 µM
Cc1ccc2nc(N3CCCCC3)c(C=NNC(=O)c3ccccc3O)cc2c1 [Compound 8m, 2-Hydroxy-N′-((6-methyl-2-(piperidin-1-yl)quinolin-3-yl)methylene)benzohydrazide] | 13% | –
